According to US10745384B2, “Indazole derivatives as αv integrin antagonists” (BRISTOL-MYERS SQUIBB COMPANY, priority 2016, dated 2020):

Biological target: T1, human αVβ6 (Homo sapiens, UniProt P06756+P18564)
T1 construct: purchased R & D systems 3817-AV
Assay: human αVβ6 HTRF binding assay
Conditions: recombinant human αVβ6 integrin, FITC-conjugated fibronectin
Protocol: All binding assays used the HTRF (homogeneous time resolved fluorescence) technology from Cisbio International, therefore all assays are described as HTRF binding assays. The assay results for the Examples are listed above together with the characterization data. The HTRF binding assays are established for the following integrins: human αVβ6, human αVβ1, human αVβ3, human αVβ5, and human αVβ8. All assays used the following assay buffer: 20 mM Tris, pH 7.4, 1 mM MgCl2, 1 mM MnCl2, 0.01% Tween 20, and 0.01% BSA. Alternatively, a SPA-based assay was used for evaluation of receptor binding.
The following describes the components and a representative procedure for the human αVβ6 HTRF binding assay: Recombinant human αVβ6 Integrin (R & D systems, 3817-AV) was biotinylated. Biotinylated human αVβ6 Integrin was added to assay vessel at a final concentration of 1.25 nM. FITC-conjugated fibronectin (Cytoskeleton, FNR02) was then added at the final concentration of 5 nM. The mixture was centrifuged at 600 rpm for three minutes using Thermo Fisher Heraeus Multifuge X3 centrifuge and then incubated at room temperature for an hour. Streptavidin Terbium (Cisbio international 610STLB) was then added at the final concentration of 0.625 nM. The resulting mixture was centrifuged at 600 rpm for three minutes using Thermo Fisher Heraeus Multifuge X3 centrifuge and then incubated at room temperature overnight in dark before reading HTRF signals. […]

T1 sequence (P06756 31-992 limits assumed): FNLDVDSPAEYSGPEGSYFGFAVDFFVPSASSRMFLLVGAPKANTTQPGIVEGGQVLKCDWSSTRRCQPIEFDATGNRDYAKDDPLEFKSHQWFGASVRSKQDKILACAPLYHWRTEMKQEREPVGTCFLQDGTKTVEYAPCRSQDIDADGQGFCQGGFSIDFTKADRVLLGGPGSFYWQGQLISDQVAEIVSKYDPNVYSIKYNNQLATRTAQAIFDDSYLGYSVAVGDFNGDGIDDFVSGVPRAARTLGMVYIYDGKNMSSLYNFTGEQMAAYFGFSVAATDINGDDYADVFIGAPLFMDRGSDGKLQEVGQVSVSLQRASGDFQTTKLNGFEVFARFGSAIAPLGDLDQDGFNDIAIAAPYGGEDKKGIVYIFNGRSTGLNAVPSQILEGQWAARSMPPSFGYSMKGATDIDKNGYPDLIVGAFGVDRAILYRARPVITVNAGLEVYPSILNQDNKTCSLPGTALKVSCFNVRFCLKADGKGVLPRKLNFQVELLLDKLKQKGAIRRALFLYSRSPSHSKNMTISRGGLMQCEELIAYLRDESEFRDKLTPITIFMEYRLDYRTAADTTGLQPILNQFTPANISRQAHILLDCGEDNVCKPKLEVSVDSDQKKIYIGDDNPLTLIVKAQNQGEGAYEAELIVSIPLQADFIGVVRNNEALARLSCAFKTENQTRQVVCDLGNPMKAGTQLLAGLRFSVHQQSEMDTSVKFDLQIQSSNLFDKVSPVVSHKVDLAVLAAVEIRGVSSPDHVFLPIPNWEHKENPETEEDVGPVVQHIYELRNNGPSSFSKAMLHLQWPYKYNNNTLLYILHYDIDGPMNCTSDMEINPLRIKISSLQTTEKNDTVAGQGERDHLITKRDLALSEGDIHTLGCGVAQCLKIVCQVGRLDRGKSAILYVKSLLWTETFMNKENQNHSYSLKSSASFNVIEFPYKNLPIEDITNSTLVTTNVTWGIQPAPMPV
T1 sequence (P18564 22-707 limits assumed): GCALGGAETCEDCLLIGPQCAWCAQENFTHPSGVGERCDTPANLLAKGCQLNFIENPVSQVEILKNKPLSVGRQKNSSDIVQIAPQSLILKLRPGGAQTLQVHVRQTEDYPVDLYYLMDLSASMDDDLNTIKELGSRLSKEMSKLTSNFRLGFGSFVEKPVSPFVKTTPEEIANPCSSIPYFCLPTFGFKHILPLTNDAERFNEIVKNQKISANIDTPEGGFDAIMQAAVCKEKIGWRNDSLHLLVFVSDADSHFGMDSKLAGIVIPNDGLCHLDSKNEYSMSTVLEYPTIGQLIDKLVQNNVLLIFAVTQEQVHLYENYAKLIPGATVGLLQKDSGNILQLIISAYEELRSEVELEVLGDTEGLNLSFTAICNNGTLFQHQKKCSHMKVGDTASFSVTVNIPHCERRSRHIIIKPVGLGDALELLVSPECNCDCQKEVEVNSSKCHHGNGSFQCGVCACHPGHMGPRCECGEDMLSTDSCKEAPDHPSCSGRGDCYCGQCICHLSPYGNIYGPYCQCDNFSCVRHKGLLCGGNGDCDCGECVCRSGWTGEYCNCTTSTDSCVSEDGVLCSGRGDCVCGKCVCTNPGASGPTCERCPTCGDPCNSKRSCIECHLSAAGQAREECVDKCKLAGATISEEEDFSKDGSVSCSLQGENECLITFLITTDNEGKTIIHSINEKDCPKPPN

IC50 [nM]	SMILES
6000	Cc1ncc([C@@H](CC(=O)O)n2ncc3cc(OCCc4ccc5c(n4)N[C@H](C)CC5)ccc32)cn1 (single isomer, unassigned) [Example 175]
33	Cc1ncc([C@H](CC(=O)O)n2ncc3cc(OCCc4ccc5c(n4)N[C@H](C)CC5)ccc32)cn1 (single isomer, unassigned) [Example 176]
5000	Cc1ncc([C@@H](CC(=O)O)n2ncc3cc(OCCc4ccc5c(n4)N[C@@H](C)CC5)ccc32)cn1 (single isomer, unassigned) [Example 177]
110	Cc1ncc([C@H](CC(=O)O)n2ncc3cc(OCCc4ccc5c(n4)N[C@@H](C)CC5)ccc32)cn1 (single isomer, unassigned) [Example 178]
1600	COc1ccc(C(CC(=O)O)n2ncc3c(CCCc4ccc5c(n4)NCCC5)cccc32)cn1 (stereo not shown) [Example 1, 3-(6-Methoxypyridin-3-yl)-3-(4-(3-(5,6,7,8-tetrahydro-1,8-naphthyridin-2-yl)propyl)-1H-indazol-1-yl)propanoic acid]
110	COc1ccc(C(CC(=O)O)n2ncc3cc(CCc4ccc5c(n4)NCCC5)ccc32)cn1 (stereo not shown) [Example 2, 3-(6-Methoxypyridin-3-yl)-3-(5-(2-(5,6,7,8-tetrahydro-1,8-naphthyridin-2-yl)ethyl)-1H-indazol-1-yl)propanoic acid]
2300	COc1ccc(C(CC(=O)O)n2ncc3c(OCCc4ccc5c(n4)NCCC5)cccc32)cn1 (stereo not shown) [Example 3, 3-(6-Methoxypyridin-3-yl)-3-(4-(2-(5,6,7,8-tetrahydro-1,8-naphthyridin-2-yl)ethoxy)-1H-indazol-1-yl)propanoic acid]
21	O=C(N[C@@H](Cn1cc2cc(OCCc3ccc4c(n3)NCCC4)ccc2n1)C(=O)O)OCc1ccccc1 [Example 4, (S)-2-(((Benzyloxy)carbonyl)amino)-3-(5-(2-(5,6,7,8-tetrahydro-1,8-naphthyridin-2-yl)ethoxy)-2H-indazol-2-yl)propanoic acid]
440	O=C(O)CC(c1ccccc1)n1ncc2cc(OCCCc3ccc4c(n3)NCCC4)ccc21 (stereo not shown) [Example 5, 3-Phenyl-3-(5-(3-(5,6,7,8-tetrahydro-1,8-naphthyridin-2-yl)propoxy)-1H-indazol-1-yl)propanoic acid]
600	COc1ccc([C@H](CC(=O)O)n2cc3cc(OCCc4ccc5c(n4)NCCC5)ccc3n2)cn1 [Example 6, (S)-3-(6-Methoxypyridin-3-yl)-3-(5-(2-(5,6,7,8-tetrahydro-1,8-naphthyridin-2-yl)ethoxy)-2H-indazol-2-yl)propanoic acid]
6.6	COc1ccc([C@H](CC(=O)O)n2cc3ccc(CCc4ccc5c(n4)NCCC5)cc3n2)cn1 [Example 7, (S)-3-(6-Methoxypyridin-3-yl)-3-(6-(2-(5,6,7,8-tetrahydro-1,8-naphthyridin-2-yl)ethyl)-2H-indazol-2-yl)propanoic acid]
390	COc1ccc([C@H](CC(=O)O)n2cc3ccc(Cc4cc5c(nc4C)NCCC5)cc3n2)cn1 [Example 8, (S)-3-(6-Methoxypyridin-3-yl)-3-(6-((2-methyl-5,6,7,8-tetrahydro-1,8-naphthyridin-3-yl)methyl)-2H-indazol-2-yl)propanoic acid]
2.6	COc1ccc([C@H](CC(=O)O)n2cc3ccc(CCCc4ccc5c(n4)NCCC5)cc3n2)cn1 [Example 9, (S)-3-(6-Methoxypyridin-3-yl)-3-(6-(3-(5,6,7,8-tetrahydro-1,8-naphthyridin-2-yl)propyl)-2H-indazol-2-yl)propanoic acid]
160	COc1ccc([C@H](CC(=O)O)n2cc3ccc(CCc4cc5c(nc4C)NCCC5)cc3n2)cn1 [Example 10, (S)-3-(6-Methoxypyridin-3-yl)-3-(6-(2-(2-methyl-5,6,7,8-tetrahydro-1,8-naphthyridin-3-yl)ethyl)-2H-indazol-2-yl)propanoic acid]
120	COc1ccc(C(CC(=O)O)n2ncc3nc(OCCc4ccc5c(n4)NCCC5)ccc32)cn1 (stereo not shown) [Example 11, 3-(6-Methoxypyridin-3-yl)-3-(5-(2-(5,6,7,8-tetrahydro-1,8-naphthyridin-2-yl)ethoxy)pyrazolo[4,3-b]pyridin-1-yl)propanoic acid]
2000	COc1ccc(C(CC(=O)O)n2ncc3cc(OCCNC4=NCCN4)ccc32)cn1 (stereo not shown) [Example 12, 3-(5-(2-((4,5-Dihydroimidazol-2-yl)amino)ethoxy)-1H-indazol-1-yl)-3-(6-methoxypyridin-3-yl)propanoic acid]

IC50 [nM]	SMILES
320	Cc1cc(C)c(S(=O)(=O)NC(Cn2ncc3cc(OCCc4ccc5c(n4)NCCC5)ccc32)C(=O)O)c(C)c1 (stereo not shown) [Example 13, 3-(5-(2-(5,6,7,8-Tetrahydro-1,8-naphthyridin-2-yl)ethoxy)-1H-indazol-1-yl)-2-((2,4,6-trimethylphenyl)sulfonamido)propanoic acid]
300	O=C(NC(Cn1ncc2cc(OCCc3ccc4c(n3)NCCC4)ccc21)C(=O)O)OCc1ccccc1 (stereo not shown) [Example 14, 2-(((Benzyloxy)carbonyl)amino)-3-(5-(2-(5,6,7,8-tetrahydro-1,8-naphthyridin-2-yl)ethoxy)-1H-indazol-1-yl)propanoic acid]
137	O=C(O)C[C@H](c1cnc2ccccc2n1)n1ncc2cc(OCCc3ccc4c(n3)NCCC4)ccc21 [Example 16, (R)-3-(Quinoxalin-2-yl)-3-(5-(2-(5,6,7,8-tetrahydro-1,8-naphthyridin-2-yl)ethoxy)-1H-indazol-1-yl)propanoic acid]
2700	O=C(O)CC(c1cc(Cl)cc(Cl)c1)n1ncc2c(CCCc3ccc4c(n3)NCCC4)cccc21 (stereo not shown) [Example 18, 3-(3,5-Dichlorophenyl)-3-(4-(3-(5,6,7,8-tetrahydro-1,8-naphthyridin-2-yl)propyl)-1H-indazol-1-yl)propanoic acid]
220	O=C(O)CC(c1cnc2ccccc2n1)n1ncc2c(CCCc3ccc4c(n3)NCCC4)cccc21 (stereo not shown) [Example 19, 3-(Quinoxalin-2-yl)-3-(4-(3-(5,6,7,8-tetrahydro-1,8-naphthyridin-2-yl)propyl)-1H-indazol-1-yl)propanoic acid]
70	COc1ccc(C(CC(=O)O)n2ncc3cc(CCCc4ccc5c(n4)NCCC5)ccc32)cn1 (stereo not shown) [Example 20, 3-(6-Methoxypyridin-3-yl)-3-(5-(3-(5,6,7,8-tetrahydro-1,8-naphthyridin-2-yl)propyl)-1H-indazol-1-yl)propanoic acid]
44	O=C(O)CC(c1cc(Cl)cc(Cl)c1)n1ncc2cc(CCCc3ccc4c(n3)NCCC4)ccc21 (stereo not shown) [Example 21, 3-(3,5-Dichlorophenyl)-3-(5-(3-(5,6,7,8-tetrahydro-1,8-naphthyridin-2-yl)propyl)-1H-indazol-1-yl)propanoic acid]
190	O=C(O)CC(c1cnc2ccccc2n1)n1ncc2cc(CCCc3ccc4c(n3)NCCC4)ccc21 (stereo not shown) [Example 22, 3-(Quinoxalin-2-yl)-3-(5-(3-(5,6,7,8-tetrahydro-1,8-naphthyridin-2-yl)propyl)-1H-indazol-1-yl)propanoic acid]
61	CN(C)C(=O)c1cccc(C(CC(=O)O)n2ncc3cc(CCCc4ccc5c(n4)NCCC5)ccc32)c1 (stereo not shown) [Example 23, 3-(3-(Dimethylcarbamoyl)phenyl)-3-(5-(3-(5,6,7,8-tetrahydro-1,8-naphthyridin-2-yl)propyl)-1H-indazol-1-yl)propanoic acid]
130	CN(C)C(=O)c1cccc(C(CC(=O)O)n2ncc3cc(CCc4ccc5c(n4)NCCC5)ccc32)c1 (stereo not shown) [Example 24, 3-(3-(Dimethylcarbamoyl)phenyl)-3-(5-(2-(5,6,7,8-tetrahydro-1,8-naphthyridin-2-yl)ethyl)-1H-indazol-1-yl)propanoic acid]
530	O=C(O)CC(c1ccc2c(c1)oc1ccccc12)n1ncc2cc(CCc3ccc4c(n3)NCCC4)ccc21 (stereo not shown) [Example 25, 3-(Dibenzo[b,d]furan-3-yl)-3-(5-(2-(5,6,7,8-tetrahydro-1,8-naphthyridin-2-yl)ethyl)-1H-indazol-1-yl)propanoic acid]
120	CN(C)Cc1cccc(C(CC(=O)O)n2ncc3cc(CCc4ccc5c(n4)NCCC5)ccc32)c1 (stereo not shown) [Example 26, 3-(3-((Dimethylamino)methyl)phenyl)-3-(5-(2-(5,6,7,8-tetrahydro-1,8-naphthyridin-2-yl)ethyl)-1H-indazol-1-yl)propanoic acid]
240	O=C(O)CC(c1cnc2ccccc2n1)n1ncc2cc(CCc3ccc4c(n3)NCCC4)ccc21 (stereo not shown) [Example 27, 3-(Quinoxalin-2-yl)-3-(5-(2-(5,6,7,8-tetrahydro-1,8-naphthyridin-2-yl)ethyl)-1H-indazol-1-yl)propanoic acid]
210	O=C(O)CC(c1cc(Cl)cc(Cl)c1)n1ncc2cc(CCc3ccc4c(n3)NCCC4)ccc21 (stereo not shown) [Example 28, 3-(3,5-Dichlorophenyl)-3-(5-(2-(5,6,7,8-tetrahydro-1,8-naphthyridin-2-yl)ethyl)-1H-indazol-1-yl)propanoic acid]
1500	CN(C)C(=O)c1cccc(C(CC(=O)O)n2ncc3c(OCCc4ccc5c(n4)NCCC5)cccc32)c1 (stereo not shown) [Example 29, 3-(3-(Dimethylcarbamoyl)phenyl)-3-(4-(2-(5,6,7,8-tetrahydro-1,8-naphthyridin-2-yl)ethoxy)-1H-indazol-1-yl)propanoic acid]
